For assay [1], the system named is R441A MtPMT. Format: cell-based, M. tuberculosis.
Assay [2] relates to D176A MtPMT.
In assay [3] the test system is D74A MtPMT.

The values that follow come from publication PMC12331936, “Structural Insights into the Protein Mannosyltransferase from Mycobacterium tuberculosis reveal a WW-Domain-Like Protein Motif in Bacteria” (Communications Biology, 2025).

SMILES strings stand for the structures.

Turning to `Cl.N=C(N)N` [guanidine chloride, guanidine hydrochloride], the “restored FasC mannosylation, level of the wild type MtPMT” value in assay [1] is listed as ~ 25 ± 5%. On to `c1c[nH]cn1` [imidazole], for which the “restored FasC mannosylation, level of the wild type MtPMT” value in assay [1] is given as ~ 25 ± 5%. For `CC(=O)[O-].[Na+]` [sodium acetate], the “chemical complementation of inactive D176A mutant” value in assay [2] is “ineffective”. In assay [3], the “chemical complementation of inactive D74A mutant” value is “ineffective”. On to `[N-]=[N+]=[N-].[Na+]` [sodium azide], for which the “chemical complementation of inactive D176A mutant” value in assay [2] was “ineffective”. In assay [3], the “chemical complementation of inactive D74A mutant” value was “ineffective”.
